Measured values: ChEMBL document CHEMBL1201862, “PubChem BioAssay data set” (2004)
Activity calls are given as the source filed them.

Assays:
Format in all cases: functional
[1] = target: Dual specificity mitogen-activated protein kinase kinase 1 (Homo sapiens, UniProt Q02750); experiment: Navigating the Kinome. Panel member name: MAP2K1
[2] = target: ALK tyrosine kinase receptor (Homo sapiens, UniProt Q9UM73);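 also: ALK tested as one member of a kinase panel screen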
[3] = target: Tyrosine-protein kinase receptor TYRO3 (Homo sapiens, UniProt Q06418);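 also: TYRO3 value obtained as one member of a kinome-wide profiling panel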
[4] = target: Mitogen-activated protein kinase 8 (Homo sapiens, UniProt P45983);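 also: value comes from one member of a kinome-wide kinase profiling panel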
[5] = target: Serine/threonine-protein kinase pim-1 (Homo sapiens, UniProt P11309)
[6] = target: Tyrosine-protein kinase BTK (Homo sapiens, UniProt Q06187)
[7] = target: Fibroblast growth factor receptor 1 (Homo sapiens, UniProt P11362)
[8] = target: Serine/threonine-protein kinase TAO1 (Homo sapiens, UniProt Q7L7X3)
[9] = target: Glycogen synthase kinase-3 alpha (Homo sapiens, UniProt P49840);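 also: GSK3A result taken from a broad kinome-wide kinase panel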
[10] = target: Mitogen-activated protein kinase kinase kinase kinase 2 (Homo sapiens, UniProt Q12851);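 also: measured as one member of a kinome-wide kinase panel, with MAP4K2 as the panel entry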
Activated CDC42 kinase 1 = Activated CDC42 kinase 1 (Homo sapiens, UniProt Q07912); experiment: Navigating the Kinome. Panel member name: ACK1
[11] = target: Platelet-derived growth factor receptor beta (Homo sapiens, UniProt P09619);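 also: value comes from a kinome panel, with PDGFRB tested as one panel member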
[12] = target: Serine/threonine-protein kinase Chk1 (Homo sapiens, UniProt O14757);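 also: measured as one member of a kinome-wide kinase profiling panel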
[13] = target: Vascular endothelial growth factor receptor 2 (Homo sapiens, UniProt P35968)
[14] = target: G protein-coupled receptor kinase 5 (Homo sapiens, UniProt P34947); experiment: Navigating the Kinome. Panel member name: GPRK5
[15] = target: Leucine-rich repeat serine/threonine-protein kinase 2 (Homo sapiens, UniProt Q5S007);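 also: value from a broad kinome-wide panel profiling study in which LRRK2 was one of the kinases tested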
[16] = target: Cyclin-dependent kinase 19 (Homo sapiens, UniProt Q9BWU1); experiment: Navigating the Kinome. Panel member name: CDC2L6
[17] = target: Tyrosine-protein kinase Fyn (Homo sapiens, UniProt P06241)
[18] = target: Serine/threonine-protein kinase Nek2 (Homo sapiens, UniProt P51955)
[19] = target: Cyclin-dependent kinase 8 (Homo sapiens, UniProt P49336); experiment: Navigating the Kinome. Panel member name: CDK8
[20] = target: Glycogen synthase kinase-3 beta (Homo sapiens, UniProt P49841);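 also: value comes from a broad kinome profiling panel, with GSK3B as the panel member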
[21] = target: Dual specificity mitogen-activated protein kinase kinase 2 (Homo sapiens, UniProt P36507); experiment: Navigating the Kinome. Panel member name: MAP2K2
[22] = target: Inhibitor of nuclear factor kappa-B kinase subunit epsilon (Homo sapiens, UniProt Q14164); experiment: Navigating the Kinome. Panel member name: IKBKE
[23] = target: T1, High affinity choline transporter 1 (Homo sapiens, UniProt Q9GZV3); experiment: CHT activators, dose response, cell-based, 10-point CRC, membrane potential dye (AID 602376)
T1 sequence (Q9GZV3 whole entry): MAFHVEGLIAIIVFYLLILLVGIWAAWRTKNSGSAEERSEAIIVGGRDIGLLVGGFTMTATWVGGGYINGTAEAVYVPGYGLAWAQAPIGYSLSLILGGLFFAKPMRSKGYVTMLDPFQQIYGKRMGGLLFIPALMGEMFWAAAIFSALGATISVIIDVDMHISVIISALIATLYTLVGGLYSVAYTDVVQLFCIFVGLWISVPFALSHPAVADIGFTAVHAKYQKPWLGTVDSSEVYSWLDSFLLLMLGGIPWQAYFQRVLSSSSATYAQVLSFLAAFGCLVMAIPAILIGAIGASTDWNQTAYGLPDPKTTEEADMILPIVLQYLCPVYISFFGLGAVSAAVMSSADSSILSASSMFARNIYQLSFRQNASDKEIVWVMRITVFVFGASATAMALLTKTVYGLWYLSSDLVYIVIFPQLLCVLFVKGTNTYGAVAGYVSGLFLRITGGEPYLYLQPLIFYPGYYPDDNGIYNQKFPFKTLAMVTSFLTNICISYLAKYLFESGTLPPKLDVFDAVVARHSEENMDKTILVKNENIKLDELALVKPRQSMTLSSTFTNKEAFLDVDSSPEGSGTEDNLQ

[24] = target: DNA dC->dU-editing enzyme APOBEC-3G (Homo sapiens, UniProt Q9HC16); experiment: APOBEC3G deaminase inhibitors, SAR follow-up, biochemical, fluorescence, single-stranded DNA substrate (AID 602136); settings: read-out: IC50_Mean
[25] = target: DNA dC->dU-editing enzyme APOBEC-3A (Homo sapiens, UniProt P31941); experiment: SAR analysis of small molecule inhibitors of APOBEC3A DNA Deaminase via a fluorescence-based single-stranded DNA deaminase assay.; settings: read-out: IC50_Mean
[26] = target: T1, High affinity choline transporter 1; experiment: CHT inhibitors, dose response, cell-based, 5-point CRC, membrane potential dye (AID 504840)
[27] = target: T1, High affinity choline transporter 1; experiment: CHT inhibitors, dose response, cell-based, 10-point CRC, membrane potential dye (AID 588401);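 also: membrane potential dye fluorescence of choline-evoked depolarization via CHT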

Chain of Tyrosine-protein kinase Fyn (P06241 whole entry): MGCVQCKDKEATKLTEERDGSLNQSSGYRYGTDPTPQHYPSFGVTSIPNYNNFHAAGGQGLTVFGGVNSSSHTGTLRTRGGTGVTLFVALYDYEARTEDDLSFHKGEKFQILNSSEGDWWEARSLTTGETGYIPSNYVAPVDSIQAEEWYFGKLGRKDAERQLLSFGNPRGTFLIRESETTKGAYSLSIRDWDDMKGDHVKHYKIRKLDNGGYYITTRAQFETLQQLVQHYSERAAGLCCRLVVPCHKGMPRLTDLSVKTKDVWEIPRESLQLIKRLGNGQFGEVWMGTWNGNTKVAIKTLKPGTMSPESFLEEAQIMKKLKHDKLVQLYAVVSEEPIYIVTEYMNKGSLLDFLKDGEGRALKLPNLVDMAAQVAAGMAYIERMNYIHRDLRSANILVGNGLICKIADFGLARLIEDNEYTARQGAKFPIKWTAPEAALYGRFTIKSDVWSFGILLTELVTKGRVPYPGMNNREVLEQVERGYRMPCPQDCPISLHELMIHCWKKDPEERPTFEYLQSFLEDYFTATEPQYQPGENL
Chain of ALK tyrosine kinase receptor (Q9UM73 whole entry): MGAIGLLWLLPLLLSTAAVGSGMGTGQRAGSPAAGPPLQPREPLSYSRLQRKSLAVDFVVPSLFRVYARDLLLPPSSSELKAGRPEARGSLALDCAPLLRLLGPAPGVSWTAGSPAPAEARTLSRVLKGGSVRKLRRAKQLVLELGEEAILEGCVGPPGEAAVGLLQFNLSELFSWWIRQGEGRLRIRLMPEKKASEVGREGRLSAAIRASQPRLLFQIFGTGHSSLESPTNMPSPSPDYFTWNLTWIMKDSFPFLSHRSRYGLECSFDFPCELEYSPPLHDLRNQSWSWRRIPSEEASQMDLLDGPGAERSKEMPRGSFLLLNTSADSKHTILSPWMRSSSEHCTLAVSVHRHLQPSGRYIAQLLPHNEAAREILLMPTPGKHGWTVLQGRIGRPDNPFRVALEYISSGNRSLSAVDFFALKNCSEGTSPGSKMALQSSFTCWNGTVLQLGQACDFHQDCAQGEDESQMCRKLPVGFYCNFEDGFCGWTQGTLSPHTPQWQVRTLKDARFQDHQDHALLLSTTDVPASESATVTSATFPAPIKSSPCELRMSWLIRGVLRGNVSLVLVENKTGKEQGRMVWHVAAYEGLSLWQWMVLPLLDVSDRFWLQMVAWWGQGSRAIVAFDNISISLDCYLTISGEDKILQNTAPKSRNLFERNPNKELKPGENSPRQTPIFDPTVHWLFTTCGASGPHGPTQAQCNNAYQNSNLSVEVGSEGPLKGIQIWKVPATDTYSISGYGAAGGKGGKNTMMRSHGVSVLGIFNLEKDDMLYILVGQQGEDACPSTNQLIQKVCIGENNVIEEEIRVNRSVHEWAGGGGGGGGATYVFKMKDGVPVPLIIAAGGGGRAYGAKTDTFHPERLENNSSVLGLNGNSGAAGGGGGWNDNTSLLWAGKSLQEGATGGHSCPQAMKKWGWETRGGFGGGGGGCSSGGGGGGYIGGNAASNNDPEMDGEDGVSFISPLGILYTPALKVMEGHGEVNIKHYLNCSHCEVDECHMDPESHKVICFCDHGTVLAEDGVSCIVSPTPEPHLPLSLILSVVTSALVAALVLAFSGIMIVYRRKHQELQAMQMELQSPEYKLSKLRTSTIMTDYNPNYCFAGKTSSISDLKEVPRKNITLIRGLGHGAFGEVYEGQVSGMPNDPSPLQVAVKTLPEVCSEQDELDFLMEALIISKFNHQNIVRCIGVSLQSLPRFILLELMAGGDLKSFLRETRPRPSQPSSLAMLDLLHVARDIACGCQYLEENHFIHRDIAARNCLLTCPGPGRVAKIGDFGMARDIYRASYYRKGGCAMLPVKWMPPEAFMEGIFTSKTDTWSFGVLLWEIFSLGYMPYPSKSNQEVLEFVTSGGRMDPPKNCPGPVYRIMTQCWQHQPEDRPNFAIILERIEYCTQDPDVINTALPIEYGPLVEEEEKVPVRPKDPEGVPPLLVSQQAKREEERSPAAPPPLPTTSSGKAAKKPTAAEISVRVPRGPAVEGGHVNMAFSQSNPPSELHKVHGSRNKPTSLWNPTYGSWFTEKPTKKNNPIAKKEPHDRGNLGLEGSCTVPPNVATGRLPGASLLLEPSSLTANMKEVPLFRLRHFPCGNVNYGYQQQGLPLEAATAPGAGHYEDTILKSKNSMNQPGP
Chain of Glycogen synthase kinase-3 beta (P49841 whole entry): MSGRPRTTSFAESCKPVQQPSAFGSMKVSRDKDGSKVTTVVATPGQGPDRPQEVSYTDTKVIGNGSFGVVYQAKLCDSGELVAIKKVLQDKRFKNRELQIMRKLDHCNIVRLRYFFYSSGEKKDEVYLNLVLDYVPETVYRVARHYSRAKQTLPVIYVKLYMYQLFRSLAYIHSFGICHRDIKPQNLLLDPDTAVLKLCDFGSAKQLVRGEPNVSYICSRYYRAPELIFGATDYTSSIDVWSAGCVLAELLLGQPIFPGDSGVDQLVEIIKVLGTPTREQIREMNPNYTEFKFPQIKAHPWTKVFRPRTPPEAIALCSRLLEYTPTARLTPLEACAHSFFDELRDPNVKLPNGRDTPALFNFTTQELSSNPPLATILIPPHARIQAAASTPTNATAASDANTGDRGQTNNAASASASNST
Chain of Tyrosine-protein kinase receptor TYRO3 (Q06418 whole entry): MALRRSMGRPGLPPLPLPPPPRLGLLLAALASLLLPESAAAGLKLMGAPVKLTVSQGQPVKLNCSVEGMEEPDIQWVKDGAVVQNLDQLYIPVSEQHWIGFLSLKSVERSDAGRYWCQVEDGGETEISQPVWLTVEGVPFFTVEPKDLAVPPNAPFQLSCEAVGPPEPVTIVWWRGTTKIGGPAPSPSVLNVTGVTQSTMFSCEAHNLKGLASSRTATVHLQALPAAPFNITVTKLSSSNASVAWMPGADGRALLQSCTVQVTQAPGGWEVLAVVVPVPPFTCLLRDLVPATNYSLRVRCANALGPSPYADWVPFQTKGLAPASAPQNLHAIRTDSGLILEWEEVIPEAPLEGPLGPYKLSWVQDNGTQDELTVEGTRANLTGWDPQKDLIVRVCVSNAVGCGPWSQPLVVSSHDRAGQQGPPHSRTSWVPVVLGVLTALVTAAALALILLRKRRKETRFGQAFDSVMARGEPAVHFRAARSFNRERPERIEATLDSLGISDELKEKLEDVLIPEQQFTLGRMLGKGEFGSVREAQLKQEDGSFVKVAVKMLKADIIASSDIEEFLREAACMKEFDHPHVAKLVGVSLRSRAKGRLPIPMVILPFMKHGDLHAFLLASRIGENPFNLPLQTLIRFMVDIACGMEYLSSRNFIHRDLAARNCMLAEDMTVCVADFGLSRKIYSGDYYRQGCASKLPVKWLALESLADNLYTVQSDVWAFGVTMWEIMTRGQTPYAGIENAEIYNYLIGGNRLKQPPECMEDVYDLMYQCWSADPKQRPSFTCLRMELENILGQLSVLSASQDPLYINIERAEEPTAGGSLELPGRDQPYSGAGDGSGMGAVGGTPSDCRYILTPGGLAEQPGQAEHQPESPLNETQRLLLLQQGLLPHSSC
Chain of Serine/threonine-protein kinase Nek2 (P51955 whole entry): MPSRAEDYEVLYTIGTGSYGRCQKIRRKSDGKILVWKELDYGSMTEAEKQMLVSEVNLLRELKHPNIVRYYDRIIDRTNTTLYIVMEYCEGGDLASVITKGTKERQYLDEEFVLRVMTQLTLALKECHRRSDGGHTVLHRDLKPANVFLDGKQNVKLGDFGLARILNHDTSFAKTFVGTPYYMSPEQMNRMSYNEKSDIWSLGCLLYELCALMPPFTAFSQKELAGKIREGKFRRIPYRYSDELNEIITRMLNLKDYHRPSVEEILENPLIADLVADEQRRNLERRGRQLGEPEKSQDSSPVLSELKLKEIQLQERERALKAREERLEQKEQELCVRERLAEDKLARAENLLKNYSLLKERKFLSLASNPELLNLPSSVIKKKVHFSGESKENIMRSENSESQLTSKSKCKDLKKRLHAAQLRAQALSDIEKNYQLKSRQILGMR
Chain of Platelet-derived growth factor receptor beta (P09619 whole entry): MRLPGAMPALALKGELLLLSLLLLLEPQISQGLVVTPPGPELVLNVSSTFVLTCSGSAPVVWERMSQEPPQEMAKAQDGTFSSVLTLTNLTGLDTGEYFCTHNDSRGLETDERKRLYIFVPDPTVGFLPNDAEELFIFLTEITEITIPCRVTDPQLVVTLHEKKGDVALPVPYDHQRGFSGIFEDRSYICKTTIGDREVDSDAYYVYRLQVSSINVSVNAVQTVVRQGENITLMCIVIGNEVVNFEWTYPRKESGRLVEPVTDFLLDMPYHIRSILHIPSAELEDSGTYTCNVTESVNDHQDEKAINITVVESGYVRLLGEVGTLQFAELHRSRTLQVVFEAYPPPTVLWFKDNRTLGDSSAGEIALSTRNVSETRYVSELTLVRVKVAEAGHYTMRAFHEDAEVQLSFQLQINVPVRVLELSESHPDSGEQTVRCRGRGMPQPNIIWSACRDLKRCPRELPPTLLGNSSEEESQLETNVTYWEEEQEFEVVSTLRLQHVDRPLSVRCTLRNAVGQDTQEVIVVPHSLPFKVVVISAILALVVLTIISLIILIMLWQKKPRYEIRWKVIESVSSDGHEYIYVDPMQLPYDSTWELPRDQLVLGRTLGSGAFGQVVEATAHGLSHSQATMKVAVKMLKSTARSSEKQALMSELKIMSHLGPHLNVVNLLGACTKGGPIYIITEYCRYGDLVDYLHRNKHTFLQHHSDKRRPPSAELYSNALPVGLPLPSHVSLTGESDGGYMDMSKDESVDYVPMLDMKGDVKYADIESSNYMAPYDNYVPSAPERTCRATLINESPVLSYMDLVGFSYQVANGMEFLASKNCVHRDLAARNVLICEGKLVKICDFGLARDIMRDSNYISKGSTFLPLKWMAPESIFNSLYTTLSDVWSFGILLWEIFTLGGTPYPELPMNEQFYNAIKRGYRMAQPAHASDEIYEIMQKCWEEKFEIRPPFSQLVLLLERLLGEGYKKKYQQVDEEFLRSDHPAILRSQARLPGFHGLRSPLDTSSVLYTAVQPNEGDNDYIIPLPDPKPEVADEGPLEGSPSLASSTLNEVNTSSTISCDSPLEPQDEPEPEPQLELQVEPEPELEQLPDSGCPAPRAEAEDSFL

O=c1[nH]n2ccccc2c1Br
Ki [1]: 2.51 µM (active) | Ki [2]: 5.01 µM (active) | Ki [3]: 2.51 µM (active) | Ki [4]: 5.01 µM (active) | Ki [5]: 3.98 µM (active) | Ki [6]: 5.01 µM (active) | Ki [7]: 3.98 µM (active) | Ki [8]: > 6.31 µM (inactive) | Ki [9]: 3.98 µM (active) | Ki [10]: 2.51 µM (active) | Ki (Activated CDC42 kinase 1): 3.98 µM (active) | Ki [11]: 2 µM (active) | Ki [12]: 0.631 µM (active) | Ki [13]: 2 µM (active) | Ki [14]: 3.98 µM (active) | Ki [15]: 2.51 µM (active) | Ki [16]: 3.16 µM (active) | Ki [17]: 5.01 µM (active) | Ki [18]: 3.16 µM (active) | Ki [19]: 3.98 µM (active) | Ki [20]: 3.16 µM (active) | Ki [21]: 1.58 µM (active) | Ki [22]: 3.16 µM (active)

COc1ccc(-c2nnc(SC(C)C(=O)NCc3ccc4c(c3)OCO4)n2Cc2ccco2)cc1 (stereo not drawn)
EC50 [23]: 24.3 µM (active)

COc1ccc(-c2nnc(SCC(=O)c3cccc(Br)c3)[nH]2)cc1
IC50 [24]: > 99 µM (inactive) | IC50 [25]: > 99 µM (inactive)

Cc1cccc(NC(=O)c2[nH]nc([N+](=O)[O-])c2Br)c1C
IC50 [26]: 4.1 µM (active) | IC50 [27]: 1.41 µM (active)
